Laboratory results as given in US20230391817A1, “5ALPHA-HYDROXY-6BETA-[2-(1-H-IMIDAZOL-4-YL)-ETHYLAMINO]-CHOLESTAN-3BETA-OL ANALOGUES AND PHARMACEUTICAL COMPOSITIONS COMPRISING SAME FOR USE IN THE TREATMENT OF CANCER” (priority 2020, published 2023).

Legend:
[1] = test system: murine 4T1 mammary tumor cells; assay: Cell viability of 4T1 cells, CellTox Green Cytotoxicity Assay; type: cell-based; details: Mus musculus, 4T1, Green Cytotoxicity Assay, 48 h
Description: (§1) Cell viability tests were performed on murine 4T1 mammary tumor cells characterized as triple negative (HER2-, ER-, PR-).
(§2) For this experiment, a cell culture medium was prepared. The culture medium consisted of Dulbecco's Modified Eagle Medium (DMEM, sold by Westburg as LO BE12-604F), comprising 4.5 g/L glucose with L-glutamine, to which 10% fetal calf serum (FCS) and 50 U/ml penicillin/streptomycin are added. The 4T1 cells were introduced into this culture medium.
(§3) 96-well plates were seeded with 2000 4T1 cells per well. After 72 hours (h) of culture under normal condition, i.e. in an incubator at 37° C. at […], the 4T1 cells were treated for 48 h with DX101, DX103, DX111, DX123, DX125, DX127 and DX129 at 100 nM, 1 μM, 2.5 μM and 10 μM. A control condition (CTL) is also performed in parallel using the previously described protocol without treatment with the molecules DX101, DX103, DX111, DX123, DX125, DX127 or DX129.
For the third method, the percentage viability is determined using the CellTox Green Cytotoxicity Assay kit (Promega). This assay measures cell death via a change in membrane integrity. […] Consequently, the higher the fluorescence in the wells, the greater the cell death. […] The percentage of cell death is determined using the 100% cell death control (made from untreated cells incubated in the presence of the lysis solution for 30 minutes at 37° C. prior to the addition of Celltox green reagent), and the cell viability in each well is then deduced from this percentage. The IC50 is then determined as explained previously.

[2] = test system: BT-474 human mammary tumor cells; assay: Cell viability of BT-474 cells, MTT; type: cell-based; details: for activity compared with DX101: BT-474, Tables 2a, 2b and 2c (MTT, LDH, Trypan Blue); for Mean LogIC50 (±SEM) / IC50: BT-474, MTT, 48 h; for Mean LogIC50 (±SEM): log of IC50 in μM; for IC50: Homo sapiens
Description: (§4) The cell viability is measured by three different methods. For the first method, MTT labeling is performed at 48 hours. This test is based on the use of the tetrazolium salt MTT (3-(4,5-dimethylthiazol-2-yl)-2,5-diphenyltetrazolium bromide). Tetrazolium is reduced by mitochondrial succinate dehydrogenase in active live cells to formazan, a purple colored precipitate. The amount of precipitate formed is proportional to the amount of live cells but also to the metabolic activity of each cell. Thus, a simple determination of the optical density at 550 nm by spectroscopy makes it possible to determine the relative amount of live and metabolically active cells. After 48 hours, the medium is aspirated, and the cells are incubated with MTT (0.5 mg/ml in culture medium) for about 3 hours. The MTT solution is aspirated and the purple crystals are dissolved in dimethyl sulfoxide (DMSO). The OD (optical density) is measured at 550 nm. The percentage of viability is then determined in each well against the CTL and the IC50 (concentration at which 50% of cells remain alive) is determined for each molecule with the Prism software using a nonlinear regression curve (log(inhibitor) vs. Response).
(§5) Cell viability tests were also performed on BT-474 human mammary tumor cells (characterized as triple positive HER2+, ER+, PR+). The BT-474 cells were in a cell culture medium identical to the previous example and seeded in 24-well plates at 70 000 cells per well for cell viability determination using trypan blue, or in 96-well plates at 13 000 cells per well for cell viability determination using the MTT or LDH assay. After 96 hours (h) of culture under normal conditions, i.e. in an incubator at 37° C. with […], BT-474 cells were treated for 48 h with DX101, DX103, DX105, DX111, DX123 and DX127 at 100 nM, 1 μM, 2.5 μM and 10 μM. A control is also performed using the protocol described previously without treatment with DX101, DX103, DX105, DX111, DX123 and DX127.
(§6) After a 10-minute trypsin digestion at 37° C., the cell survival was also quantified by means of a trypan blue test with automatic counting using the Biorad TC20 machine (TC20™ Automated Cell Counter). The trypan blue test is based on the integrity of cell membranes, which is disrupted in the dead cells. Trypan blue stains dead cells blue. The Biorad TC20 cell counter counts the proportion of blue and non-blue cells, and reports the percentage of cells. The percentage of viability is then determined in each well relative to the untreated cells and the IC50 is determined as explained in the preceding example. Also, the percentage viability of the BT-474 cells was determined using the MTT and LDH assay, performed as described in the preceding example.

[3] = test system: murine 4T1 mammary tumor cells; assay: Cell viability of 4T1 cells, MTT; type: cell-based; details: for cytotoxic activity compared with DX101: 4T1, Tables 1a, 1b and 1c (MTT, LDH, Green Cytotoxicity Assay); for IC50: Mus musculus, 4T1, MTT, 48 h
Description: as §1, §2, §3, §4

[4] = test system: murine 4T1 mammary tumor cells; assay: Cell viability of 4T1 cells, LDH; type: cell-based; details: Mus musculus, 4T1, LDH, 48 h
Description: as §1, §2, §3
For the second method, the percentage of viability is determined by assaying the activity of the enzyme LDH (lactate dehydrogenase) in cell supernatants using the non radioactive cytotoxicity assay kit (Promega). LDH is an enzyme released in the supernatant of dead cells. The higher the LDH activity in the supernatant, the greater the cell death. In this enzyme assay, the LDH released converts a violet tetrazolium salt to a red colored formazan, absorbing at 490 nm. The intensity of the red color is proportional to the number of dead cells. After 48 h of treatment, the supernatants are transferred to a new 96-well plate and incubated for 30 minutes in the presence of substrate mix at room temperature. The reaction is stopped with stop solution reagent and the absorbance is determined at 490 nm. The percentage of cell death is determined here using a 100% maximum LDH activity control (made from untreated cells incubated in the presence of lysis solution for 45 minutes at 37° C. just prior to addition of the substrate mix), and the cell viability in each well is then deduced from this percentage. The IC50 is then determined as explained in the preceding paragraph.

[5] = test system: BT-474 human mammary tumor cells; assay: Cell viability of BT-474 cells, trypan blue; type: cell-based; details: BT-474, Trypan Blue, 48 h; for Mean LogIC50 (±SEM): log of IC50 in μM; for IC50: Homo sapiens
Description: as §5, §6

[6] = Oral pharmacokinetic study in rat, LC/MS assay in plasma (Examples 21-24); type: in vivo; details: in vivo, po, 50 mg/kg
Description: The following study is an LC/MS assay in plasma of the various molecules over 3 days (11 measurement points in the end). The graphs are always presented in comparison with DX101 which is the reference.
Plasma sampling at 0 (without injection), 5, 10, 15, 30 min, 1 h, 4 h, 8 h, 24 h, 48 h, 72 h (11 points)

[7] = molecular target: T1, Cholesterol Epoxide Hydrolase (ChEH) (Homo sapiens, UniProt Q15125+Q9UBM7); assay: Cholesterol Epoxide Hydrolase (ChEH) activity in MCF-7 cells, [14C]5,6α-EC metabolism by TLC; type: cell-based; details: 1 μM, 24 h, [14C]5,6α-EC 0.6 μM
T1 construct: endogenous in cells; host or cells: MCF-7
T1 sequence (Q15125 whole entry): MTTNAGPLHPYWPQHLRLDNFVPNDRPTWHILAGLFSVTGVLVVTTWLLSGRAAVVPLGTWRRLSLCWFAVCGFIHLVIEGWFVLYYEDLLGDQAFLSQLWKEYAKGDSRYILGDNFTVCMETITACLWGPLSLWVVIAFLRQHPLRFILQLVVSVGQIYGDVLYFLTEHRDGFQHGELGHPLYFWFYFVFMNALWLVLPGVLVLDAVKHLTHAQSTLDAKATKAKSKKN
T1 sequence (Q9UBM7 whole entry): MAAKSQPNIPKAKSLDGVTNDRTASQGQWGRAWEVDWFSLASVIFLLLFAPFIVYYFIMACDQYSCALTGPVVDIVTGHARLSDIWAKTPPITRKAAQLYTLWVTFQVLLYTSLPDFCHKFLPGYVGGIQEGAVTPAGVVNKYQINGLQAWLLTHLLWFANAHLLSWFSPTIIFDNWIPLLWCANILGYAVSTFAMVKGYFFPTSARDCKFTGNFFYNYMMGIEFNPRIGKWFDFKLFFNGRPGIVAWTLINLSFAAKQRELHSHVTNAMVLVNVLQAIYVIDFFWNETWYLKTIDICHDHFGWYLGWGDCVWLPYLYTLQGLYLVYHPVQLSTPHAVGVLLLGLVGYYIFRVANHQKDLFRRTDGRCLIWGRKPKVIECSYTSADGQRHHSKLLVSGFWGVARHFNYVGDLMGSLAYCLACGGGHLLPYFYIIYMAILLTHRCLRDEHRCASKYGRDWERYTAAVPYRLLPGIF
From the text: The compounds 5,6α-epoxycholesterol (5,6α-EC) and 5,6p-epoxycholesterol (5,6p-EC) are oxysterols involved in the anticancer pharmacology of tamoxifen, a widely used antitumor drug. Both are metabolized to cholestane-3β,5α,6β-triol (CT) by the enzyme cholesterol-5,6-epoxide hydrolase (ChEH), and CT is metabolized by the enzyme HSD11B2 (11β-hydroxysteroid dehydrogenase 2) to 6-oxocholestane-3β,5α-diol (OCDO), a tumor-promoting oncosterone.
MCF-7 cells are in a cell culture medium identical to that of Example 5 and are seeded in 6-well plates at 150 000 cells per well with three wells per treatment condition. […] Tamoxifen is used as a positive control for 3α-fluoro-5α-hydroxy-6β-[2-(1H-imidazol-4-yl)ethylamino]cholestane and 5α-hydroxy-6β-[2-(1H-imidazol-4-yl)ethylamino]cholestan-3β-ol (1 μM for all molecules).
After 24 hours of treatment, the media are collected and lipid extracts are prepared from the cell pellets by extraction with 100 μL of chloroform, 400 μL of methanol, and 300 μL of water.
The lipid extracts are analyzed by thin layer chromatography (TLC) using ethyl acetate (EtOAc) as eluent. The analysis is performed with a plate reader and then by autoradiography.

[8] = log of IC50 in μM, read-out: Mean LogIC50 (±SEM) (converted)

SMILES	IC50 [1, 8] [µM]	IC50 ([1]; read-out: IC50) [µM]	activity compared with DX101 [2]	cytotoxic activity compared with DX101 [3]	IC50 [3, 8] [µM]	IC50 ([3]; read-out: IC50) [µM]	IC50 [4, 8] [µM]	IC50 ([4]; read-out: IC50) [µM]	Mean LogIC50 (±SEM) [2]	IC50 [2] [µM]	Mean LogIC50 (±SEM) [5]	IC50 [5] [µM]	Area under the curve [6]	Max concentration [6] [nM]	Time for Cmax [6] [min]	bioavailability / extent of absorption compared with DX101 [6]	speed of absorption compared with DX101 [6]	inhibition of ChEH activity [7]	maximum concentration compared with DX101 [6]
CC(=O)N[C@H]1CC[C@]2(C)[C@H]3CC[C@]4(C)[C@@H]([C@H](C)CCCC(C)C)CC[C@H]4[C@@H]3C[C@@H](NCCc3c[nH]cn3)[C@@]2(O)C1 [DX127, 3β-acetamido-5α-hydroxy-6β-[2-(1H-imidazol-4-yl)ethylamino]cholestane]	11	10.9	similar	lower	11.7	11.7	7.08	7.09	–	–	–	–	–	–	–	–	–	–	–
CC(C)CCC[C@@H](C)[C@H]1CC[C@H]2[C@@H]3C[C@@H](NCCc4c[nH]cn4)[C@@]4(O)C[C@@H](N)CC[C@]4(C)[C@H]3CC[C@]12C [DX125, 3β-amino-5α-hydroxy-6β-[2-(1H-imidazol-4-yl)ethylamino]cholestane]	22.4	> 10	–	lower	145	> 10	36.3	> 10	–	–	–	–	–	–	–	–	–	–	–
CO[C@H]1CC[C@]2(C)[C@H]3CC[C@]4(C)[C@@H]([C@H](C)CCCC(C)C)CC[C@H]4[C@@H]3C[C@@H](NCCc3c[nH]cn3)[C@@]2(O)C1 [DX103, 3β-methoxy-5α-hydroxy-6β-[2-(1H-imidazol-4-yl)ethylamino]cholestane]	2.63	2.63	similar	–	3.16	3.16	4.37	4.4	0.85 ± 0.05	7.08	0.42 ± 0.25	2.62	105351	135	240	slightly lower bioavailability	faster absorption	–	–
CC(C)CCC[C@@H](C)[C@H]1CC[C@H]2[C@@H]3C[C@@H](NCCc4c[nH]cn4)[C@@]4(O)C[C@@H](S(C)(=O)=O)CC[C@]4(C)[C@H]3CC[C@]12C [DX129, 3β-methylsulfonyl-5α-hydroxy-6β-[2-(1H-imidazol-4-yl)ethylamino]cholestane]	16.2	16.2	–	lower	15.1	15.1	3.89	3.87	–	–	–	–	–	–	–	–	–	–	–
CC(C)CCC[C@@H](C)[C@H]1CC[C@H]2[C@@H]3C[C@@H](NCCc4c[nH]cn4)[C@@]4(O)C[C@@H](N=[N+]=[N-])CC[C@]4(C)[C@H]3CC[C@]12C [DX123, 3β-azido-5α-hydroxy-6β-[2-(1H-imidazol-4-yl)ethylamino]cholestane]	2.09	> 10	tends to be superior	tendency to be higher	5.89	5.94	1.45	1.45	–	–	–	–	6711	721	4	twofold higher bioavailability	–	–	–
CCCCCCCCO[C@H]1CC[C@]2(C)[C@H]3CC[C@]4(C)[C@@H]([C@H](C)CCCC(C)C)CC[C@H]4[C@@H]3C[C@@H](NCCc3c[nH]cn3)[C@@]2(O)C1 [DX115, 3β-octanoxy-5α-hydroxy-6β-[2-(1H-imidazol-4-yl)ethylamino]cholestane]	25.1	> 10	–	–	37.2	> 10	17.4	> 10	–	–	–	–	–	–	–	–	–	–	–
CC/C(=C(\c1ccccc1)c1ccc(OCCN(C)C)cc1)c1ccccc1 [tamoxifen, reference compound]	–	–	–	–	–	–	–	–	–	–	–	–	–	–	–	–	–	total inhibition	–
CCO[C@H]1CC[C@]2(C)[C@H]3CC[C@]4(C)[C@@H]([C@H](C)CCCC(C)C)CC[C@H]4[C@@H]3C[C@@H](NCCc3c[nH]cn3)[C@@]2(O)C1 [DX105, 3β-ethoxy-5α-hydroxy-6β-[2-(1H-imidazol-4-yl)ethylamino]cholestane]	–	–	similar	–	–	–	–	–	0.86 ± 0.04	4.08	0.55 ± 0.14	3.57	145590	197	240	equivalent to (or even slightly higher than)	much faster absorption	–	much higher maximum concentration
